As a reminder, the IC50 is the midpoint of a concentration-inhibition curve.

The test system of test [1] is Aβ40 in conditioned medium of cells stably expressing Amyloid Precursor Protein (APP). As to the kind of experiment: In vitro BACE-1 cell-based assay (Aβ40 sandwich ELISA). The following applies: read-out: IC50 IP (μM) BACE1 cell. In a few lines: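 APP-stable cells, pre-cultured 24 h at 37° C in DMEM/10% FBS, were treated 24 h with compound in a 10-point series starting at 100 μM or 10 μM (0.1% DMSO final). Secreted Aβ40 in conditioned medium was measured by pAb40/biotin-6E10 sandwich ELISA with Europium time-resolved fluorescence; IC50 from percent inhibition versus concentration.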
Background: An ELISA detects its analyte on a solid surface through an enzyme-linked reagent.

For the next test, the target named is human recombinant BACE2 (Homo sapiens (Human), UniProt Q9Y5Z0). As to the kind of experiment: In vitro enzymatic BACE2 FRET assay. The conditions noted are these: read-out: IC50 IP (μM) BACE2 enzyme. Type of test: biochemical. Summed up:
(§1)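 FRET cleavage assay using Ni-NTA-purified recombinant protease and 50 nM quenched peptide substrate, 1 h. Stopped by neutralising with Tris; fluorescence at 488/590 nm.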

A further test deals with human recombinant BACE1 (Homo sapiens (Human), UniProt P56817). Kind of test: In vitro enzymatic BACE1 FRET assay. The format is biochemical. The following applies: read-out: IC50 IP (μM) BACE1 enzyme. In a few lines:
as §1

A further test has as its target Recombinant Cat D (Homo sapiens (Human), UniProt P07339). Kind of test: In vitro enzymatic Cathepsin D (Cat D) FRET assay. The following applies: read-out: IC50 IP (μM) CatD. Type of test: biochemical. In a few lines: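 Assay pH is 3.5 (0.05 M citrate, 5 mM CHAPS, 10% DMSO final) with Cat D from CHO cells. A 20 nM quenched peptide substrate is cleaved over one hour; the reaction is ended with Tris and read by fluorescence (ex 500, em 580 nm).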

human recombinant BACE1, sequence (P56817 46-501): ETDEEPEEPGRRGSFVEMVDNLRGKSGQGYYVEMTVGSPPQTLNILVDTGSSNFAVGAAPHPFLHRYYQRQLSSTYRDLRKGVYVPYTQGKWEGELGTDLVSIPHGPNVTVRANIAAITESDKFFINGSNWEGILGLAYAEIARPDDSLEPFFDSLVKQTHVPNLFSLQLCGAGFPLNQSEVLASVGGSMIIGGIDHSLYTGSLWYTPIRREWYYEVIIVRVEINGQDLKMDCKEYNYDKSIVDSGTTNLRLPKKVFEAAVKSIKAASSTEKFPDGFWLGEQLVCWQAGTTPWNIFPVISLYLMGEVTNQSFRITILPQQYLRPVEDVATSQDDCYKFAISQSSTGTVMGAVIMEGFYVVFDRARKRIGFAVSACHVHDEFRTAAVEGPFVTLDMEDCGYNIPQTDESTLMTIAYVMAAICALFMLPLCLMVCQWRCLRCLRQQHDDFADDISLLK
human recombinant BACE2, sequence (Q9Y5Z0 63-518): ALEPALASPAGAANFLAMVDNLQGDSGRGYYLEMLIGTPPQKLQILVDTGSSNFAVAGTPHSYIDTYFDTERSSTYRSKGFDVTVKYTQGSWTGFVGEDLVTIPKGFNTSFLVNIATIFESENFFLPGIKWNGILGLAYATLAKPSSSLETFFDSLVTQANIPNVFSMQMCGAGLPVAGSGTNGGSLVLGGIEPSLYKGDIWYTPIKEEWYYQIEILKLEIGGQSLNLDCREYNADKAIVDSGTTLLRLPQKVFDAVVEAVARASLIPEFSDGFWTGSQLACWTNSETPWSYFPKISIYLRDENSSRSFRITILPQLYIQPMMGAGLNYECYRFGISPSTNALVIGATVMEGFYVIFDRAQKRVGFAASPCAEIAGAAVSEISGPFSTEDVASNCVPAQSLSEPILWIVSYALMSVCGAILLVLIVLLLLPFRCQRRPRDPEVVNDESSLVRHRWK
Recombinant Cat D, sequence (P07339 65-412): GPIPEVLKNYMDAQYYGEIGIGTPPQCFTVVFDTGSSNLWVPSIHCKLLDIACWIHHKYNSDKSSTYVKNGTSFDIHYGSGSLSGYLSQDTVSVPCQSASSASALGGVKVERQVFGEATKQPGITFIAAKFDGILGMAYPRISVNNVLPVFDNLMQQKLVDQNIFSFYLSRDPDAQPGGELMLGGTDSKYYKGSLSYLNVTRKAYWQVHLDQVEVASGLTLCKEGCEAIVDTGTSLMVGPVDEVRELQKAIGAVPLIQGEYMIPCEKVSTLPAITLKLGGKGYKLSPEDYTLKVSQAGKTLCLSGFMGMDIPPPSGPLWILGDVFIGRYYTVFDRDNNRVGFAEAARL

Regarding `COC[C@]12C[C@H]1[C@@](C)(c1cc(NC(=O)c3c[nH]c(=O)cn3)cc(F)c1F)N=C(N)S2` [Example 1027, N-(3-((1S,5S,6S)-3-amino-1-(methoxymethyl)-5-methyl-2-thia-4-azabicyclo[4.1.0]hept-3-en-5-yl)-4,5-difluorophenyl)-5-oxo-4,5-dihydro-2-pyrazinecarboxamide], the IC50 in test [1] amounted to 0.136 µM; at human recombinant BACE2, 0.0565 µM; on human recombinant BACE1, 0.0196 µM; at Recombinant Cat D, 981 µM.
Taken in the same sequence, the figures for `COC[C@]12C[C@H]1[C@@](C)(c1cc(NC(=O)c3cnc(OCC(C)C)cn3)cc(F)c1F)N=C(N)S2` [Example 1028, N-(3-((1S,5S,6S)-3-amino-1-(methoxymethyl)-5-methyl-2-thia-4-azabicyclo[4.1.0]hept-3-en-5-yl)-4,5-difluorophenyl)-5-(2-methylpropoxy)-2-pyrazinecarboxamide] were 0.0293 µM, 0.226 µM, 0.00195 µM and 135 µM.
Taken in the same sequence, the figures for `COC[C@]12C[C@H]1[C@@](C)(c1cc(NC(=O)c3cnc(OCC4CCO4)cn3)cc(F)c1F)N=C(N)S2` (stereo partly drawn) [Example 1029, N-(3-((1S,5S,6S)-3-amino-1-(methoxymethyl)-5-methyl-2-thia-4-azabicyclo[4.1.0]hept-3-en-5-yl)-4,5-difluorophenyl)-5-(oxetan-2-ylmethoxy)pyrazine-2-carboxamide] were 0.0541 µM, 0.459 µM, 0.00741 µM and 1140 µM.
Taken in the same sequence, the figures for `C=C(C)COc1cnc(C(=O)Nc2cc(F)c(F)c([C@@]3(C)N=C(N)S[C@@]4(COC)C[C@H]43)c2)cn1` [Example 1030, N-(3-((1S,5S,6S)-3-amino-1-(methoxymethyl)-5-methyl-2-thia-4-azabicyclo[4.1.0]hept-3-en-5-yl)-4,5-difluorophenyl)-5-((2-methyl-2-propen-1-yl)oxy)-2-pyrazinecarboxamide] were 0.0414 µM, 0.072 µM, 0.00213 µM and 243 µM.
Turning to `COC[C@]12C[C@H]1[C@@](C)(c1cc(NC(=O)c3cnc(OCc4cc(C)no4)cn3)cc(F)c1F)N=C(N)S2` [Example 1031, N-(3-((1S,5S,6S)-3-amino-1-(methoxymethyl)-5-methyl-2-thia-4-azabicyclo[4.1.0]hept-3-en-5-yl)-4,5-difluorophenyl)-5-((3-methyl-5-isoxazolyl)methoxy)-2-pyrazinecarboxamide], the IC50 came out at 0.152 µM in test [1], 0.0897 µM at human recombinant BACE2, 0.00107 µM on human recombinant BACE1 and 775 µM on Recombinant Cat D.
On to `COC[C@]12C[C@H]1[C@@](C)(c1cc(NC(=O)c3cnc(OCc4cc(C)on4)cn3)cc(F)c1F)N=C(N)S2` [Example 1032, N-(3-((1S,5S,6S)-3-amino-1-(methoxymethyl)-5-methyl-2-thia-4-azabicyclo[4.1.0]hept-3-en-5-yl)-4,5-difluorophenyl)-5-((5-methyl-3-isoxazolyl)methoxy)-2-pyrazinecarboxamide], for which the IC50 was found to be 0.0323 µM in test [1], 0.0465 µM at human recombinant BACE2, 0.00106 µM on human recombinant BACE1 and 1020 µM on Recombinant Cat D.
Taken in the same sequence, the figures for `COC[C@]12C[C@H]1[C@@](C)(c1cc(NC(=O)c3cnc(OCc4ccccc4)cn3)cc(F)c1F)N=C(N)S2` [Example 1033, N-(3-((1S,5S,6S)-3-amino-1-(methoxymethyl)-5-methyl-2-thia-4-azabicyclo[4.1.0]hept-3-en-5-yl)-4,5-difluorophenyl)-5-(benzyloxy)-2-pyrazinecarboxamide] were 0.101 µM, 0.0323 µM, 0.00105 µM and 230 µM.
For `COC[C@]12C[C@H]1[C@@](C)(c1cc(NC(=O)c3cnc(OCc4nccs4)cn3)cc(F)c1F)N=C(N)S2` [Example 1034, N-(3-((1S,5S,6S)-3-amino-1-(methoxymethyl)-5-methyl-2-thia-4-azabicyclo[4.1.0]hept-3-en-5-yl)-4,5-difluorophenyl)-5-(1,3-thiazol-2-ylmethoxy)-2-pyrazinecarboxamide] the same measures were 0.0109 µM, 0.0118 µM, 0.0014 µM and 1400 µM.
For `COC[C@]12C[C@H]1[C@@](C)(c1cc(NC(=O)c3cnc(OCC4CC4(F)F)cn3)cc(F)c1F)N=C(N)S2` (stereo partly drawn) [Example 1035, N-(3-((1S,5S,6S)-3-amino-1-(methoxymethyl)-5-methyl-2-thia-4-azabicyclo[4.1.0]hept-3-en-5-yl)-4,5-difluorophenyl)-5-((2,2-difluorocyclopropyl)methoxy)pyrazine-2-carboxamide] the same measures were 0.022 µM, 0.1 µM, 0.00258 µM and 1210 µM.
For `COC[C@]12C[C@H]1[C@@](C)(c1cc(NC(=O)c3cnc(OCc4nnc(C)o4)cn3)cc(F)c1F)N=C(N)S2` [Example 1037, N-(3-((1S,5S,6S)-3-amino-1-(methoxymethyl)-5-methyl-2-thia-4-azabicyclo[4.1.0]hept-3-en-5-yl)-4,5-difluorophenyl)-5-((5-methyl-1,3,4-oxadiazol-2-yl)methoxy)-2-pyrazinecarboxamide], the 50% inhibitory concentration (IC50) in test [1] came out at 0.0467 µM; at human recombinant BACE2, 0.128 µM; on human recombinant BACE1 it was 0.000803 µM; on Recombinant Cat D it was 785 µM.
Consider `C[C@]1(c2cc(NC(=O)c3cnc(OCC(F)(F)F)cn3)ccc2F)N=C(N)S[C@@]2(C(=O)NCCF)C[C@H]21` [Example 1040, (1S,5S,6S)-3-amino-5-(2-fluoro-5-(5-(2,2,2-trifluoroethoxy)pyrazine-2-carboxamido)phenyl)-N-(2-fluoroethyl)-5-methyl-2-thia-4-azabicyclo[4.1.0]hept-3-ene-1-carboxamide], for which the IC50 in test [1] was determined as 0.00284 µM; at human recombinant BACE2, 0.0555 µM; at human recombinant BACE1, 0.000426 µM; on Recombinant Cat D it was 212 µM.
With `CC1(NC(=O)[C@]23C[C@H]2[C@@](C)(c2cc(NC(=O)c4cnc(OCC(F)(F)F)cn4)ccc2F)N=C(N)S3)CC1` [Example 1041, (1S,5S,6S)-3-amino-5-(2-fluoro-5-(5-(2,2,2-trifluoroethoxy)pyrazine-2-carboxamido)phenyl)-5-methyl-N-(1-methylcyclopropyl)-2-thia-4-azabicyclo[4.1.0]hept-3-ene-1-carboxamide], the concentration for half-maximal inhibition (IC50) in test [1] was 0.00692 µM; at human recombinant BACE2, 0.222 µM; at human recombinant BACE1, 0.00176 µM; on Recombinant Cat D, 324 µM.
Taken in the same sequence, the figures for `C#CCOc1cnc(C(=O)Nc2cc(F)c(F)c([C@@]3(C)N=C(N)S[C@@]4(CNC(C)=O)C[C@H]43)c2)cn1` [Example 1042, N-(3-((1S,5S,6S)-1-(acetamidomethyl)-3-amino-5-methyl-2-thia-4-azabicyclo[4.1.0]hept-3-en-5-yl)-4,5-difluorophenyl)-5-(prop-2-yn-1-yloxy)pyrazine-2-carboxamide] were 0.00621 µM, 0.0159 µM, 0.000317 µM and 55.6 µM.
Taken in the same sequence, the figures for `C#CCOc1cnc(C(=O)Nc2cc(C)c(F)c([C@@]3(C)N=C(N)S[C@@]4(COC)C[C@H]43)c2)cn1` [Example 1043, N-(3-((1S,5S,6S)-3-amino-1-(methoxymethyl)-5-methyl-2-thia-4-azabicyclo[4.1.0]hept-3-en-5-yl)-4-fluoro-5-methylphenyl)-5-(2-propyn-1-yloxy)-2-pyrazinecarboxamide] were 0.0138 µM, 0.00931 µM, 0.000352 µM and 196 µM.
Taken in the same sequence, the figures for `COC[C@]12C[C@H]1[C@@](C)(c1cc(NC(=O)c3cnc(OCc4nc(C)no4)cn3)cc(C)c1F)N=C(N)S2` [Example 1044, N-(3-((1S,5S,6S)-3-amino-1-(methoxymethyl)-5-methyl-2-thia-4-azabicyclo[4.1.0]hept-3-en-5-yl)-4-fluoro-5-methylphenyl)-5-((3-methyl-1,2,4-oxadiazol-5-yl)methoxy)-2-pyrazinecarboxamide] were 0.017 µM, 0.0987 µM, 0.001 µM and 291 µM.
Turning to `CC(NC(=O)[C@]12C[C@H]1[C@@](C)(c1cc(NC(=O)c3cnc(OCC(F)(F)F)cn3)ccc1F)N=C(N)S2)C(F)F` (stereo partly drawn) [Example 1045, (1S,5S,6S)-3-amino-N-(1,1-difluoropropan-2-yl)-5-(2-fluoro-5-(5-(2,2,2-trifluoroethoxy)pyrazine-2-carboxamido)phenyl)-5-methyl-2-thia-4-azabicyclo[4.1.0]hept-3-ene-1-carboxamide], the IC50 was determined as 0.0738 µM in test [1], 0.288 µM on human recombinant BACE2, 0.00181 µM at human recombinant BACE1 and 194 µM on Recombinant Cat D.
For `C#CCOc1cnc(C(=O)Nc2cc(F)c(F)c([C@@]3(C)N=C(N)S[C@@]4(COCC)C[C@H]43)c2)cn1` [Example 1046, N-(3-((1S,5S,6S)-3-amino-1-(ethoxymethyl)-5-methyl-2-thia-4-azabicyclo[4.1.0]hept-3-en-5-yl)-4,5-difluorophenyl)-5-(2-propyn-1-yloxy)-2-pyrazinecarboxamide] the same measures were 0.0162 µM, 0.0307 µM, 0.00037 µM and 43.5 µM.

For the origin of these results see US20160046618A1, “Cyclopropyl Fused Thiazin-2-Amine Compounds as Beta-Secretase Inhibitors and Methods of Use” (AMGEN INC., priority 2014, published 2016).
